For 1 molecule, LD50 results are on record in ChEMBL document CHEMBL1146412, “Sch 54445: a new polycyclic xanthone with highly potent antifungal activity produced by Actinoplanes sp” (J Nat Prod, 1997).

This data set in a line: Toxicity in iv dosed mouse. The data set is classed as organism-based. The conditions noted are these: in vivo.

Consider `CCC(C)c1cc2c(Cl)c3c(c(O)c2c(=O)n1N)-c1c(O)c2c(c4c1[C@@H](C3)OCO4)O[C@H]1[C@@H](C2=O)[C@@H](O)C=C[C@H]1OC` (stereo partly specified), for which the LD50 (usually the dose at which mortality reaches 50%) came out at 1 mg/kg.
